For one compound, EC50 results are on record in ChEMBL document CHEMBL4619784, “Exploiting Existing Molecular Scaffolds for Long-Term COVID Treatment” (ACS Med Chem Lett, 2020).

The test has as its system SARS-CoV. Nature of the test: Antiviral activity against SARS coronavirus Urbani infected in monkey Vero E6 cells assessed as reduction in virus-induced cytopathogenicity incubated for 48 hrs by CellTiter-Glo luminescent cell viability assay. Type of test: functional, organism-based. Particulars: Severe acute respiratory syndrome-related coronavirus, Vero C1008, 48 h. A general note: Protection from cytopathic effect is a common read-out in antiviral testing.

As for `Cc1ccc(N)cc1C(=O)N[C@H](C)c1cccc2ccccc12`, the concentration for a half-maximal effect (EC50) – broadly, the concentration at which the effect is half-maximal – stood at 10 µM.
